Assay results: patent US20220167615A1, “FUNGICIDAL COMPOSITIONS” (SYNGENTA CROP PROTECTION AG, priority 2019, published 2022)
Where two headings read alike, the source gives them in different places.

Key:
[1] = system: Mycosphaerella arachidis (Cercospora arachidicola); assay: Mycosphaerella arachidis (Cercospora arachidicola) / liquid culture (early leaf spot); assay type: cell-based; details: read-out: disease control (inhibition of growth, photometric)
[2] = system: Botryotinia fuckeliana (Botrytis cinerea); assay: Botryotinia fuckeliana (Botrytis cinerea) / liquid culture (Gray mould); assay type: cell-based; details: read-out: disease control (inhibition of growth, photometric)
[3] = system: Puccinia recondita f. sp. tritici; assay: Puccinia recondita f. sp. tritici / wheat / leaf disc preventative (Brown rust); assay type: in vivo; details: foliar, read-out: percent disease control compared to untreated
Phakopsora pachyrhizi = Phakopsora pachyrhizi / soybean / leaf disc preventative (Asian soybean rust); assay type: in vivo; details: foliar, read-out: percent disease control compared to untreated
[4] = system: Monographella nivalis (Microdochium nivale); assay: Monographella nivalis (Microdochium nivale) / liquid culture (foot rot cereals); assay type: cell-based; details: read-out: disease control (inhibition of growth, photometric)
[5] = system: Glomerella lagenarium (Colletotrichum lagenarium); assay: Glomerella lagenarium (Colletotrichum lagenarium) / liquid culture (Anthracnose); assay type: cell-based; details: Colletotrichum orbiculare, read-out: disease control (inhibition of growth, photometric)
[6] = system: Mycosphaerella graminicola (Septoria tritici); assay: Mycosphaerella graminicola (Septoria tritici) / liquid culture (Septoria blotch); assay type: cell-based; details: Zymoseptoria tritici, read-out: disease control (inhibition of growth, photometric)
[7] = system: Phaeosphaeria nodorum (Septoria nodorum); assay: Phaeosphaeria nodorum (Septoria nodorum) / wheat / leaf disc preventative (Glume blotch); assay type: in vivo; details: Parastagonospora nodorum, foliar, read-out: percent disease control compared to untreated
[8] = system: Magnaporthe grisea (Pyricularia oryzae); assay: whole plant or invertebrate; assay type: in vivo; details: foliar, read-out: percent disease control compared to untreated
[9] = 20 ppm in the applied formulation, PDB, 24° C., 4-5 days after application, vs untreated control
[10] = 20 ppm in the applied formulation, Vogels broth, 24° C., 3-4 days after application, vs untreated control
[11] = 200 ppm in the applied formulation, wheat leaf segments cv. Kanzler, inoculated 1 day after application, assessed 7-9 days after application
[12] = 200 ppm in the applied formulation, soybean leaf disks, inoculated one day after application, assessed 12 to 14 days after application
[13] = 20 ppm in the applied formulation, PDB, 24° C., 3 to 4 days after application, vs untreated control
[14] = 20 ppm in the applied formulation, PDB, 24° C., 4 to 5 days after application, vs untreated control
[15] = 200 ppm in the applied formulation, wheat leaf segments cv. Kanzler, inoculated 2 days after application, assessed 5-7 days after application

COc1ccnc(C(=O)N[C@@H](C)C(=O)OC(C)C(C)n2ccc3c(Br)ccc(F)c32)c1O (stereo partly drawn) [X.02, [2-(4-bromo-7-fluoro-indol-1-yl)-1-methyl-propyl] (2S)-2-[(3-hydroxy-4-methoxy-pyridine-2-carbonyl)amino]propanoate]
≥ 80%: inhibition at 20 ppm [1, 9] | inhibition at 20 ppm [2, 10] | pest or weed control at 200 ppm [3, 11] | pest or weed control at 200 ppm (Phakopsora pachyrhizi; [12]) | inhibition at 20 ppm [4, 9] | inhibition at 20 ppm [5, 13] | inhibition at 20 ppm [6, 14]

COc1ccnc(C(=O)N[C@@H](C)C(=O)OC(C)C(C)c2ncc(Cl)cc2Cl)c1O (stereo partly drawn) [X.03, [2-(3,5-dichloro-2-pyridyl)-1-methyl-propyl] (2S)-2-[(3-hydroxy-4-methoxy-pyridine-2-carbonyl)amino]propanoate]
≥ 80%: inhibition at 20 ppm [1] | inhibition at 20 ppm [2] | pest or weed control at 200 ppm [3] | pest or weed control at 200 ppm (Phakopsora pachyrhizi) | pest or weed control at 200 ppm [7] | inhibition at 20 ppm [4] | inhibition at 20 ppm [5] | inhibition at 20 ppm [6]

COc1ccnc(C(=O)N[C@@H](C)C(=O)O[C@@H](C)C2(c3cccc4ccccc34)CC2)c1OCOC(C)=O [X.04, [(1S)-1-[1-(1-naphthyl)cyclopropyl]ethyl] (2S)-2-[[3-(acetoxymethoxy)-4-methoxy-pyridine-2-carbonyl]amino]propanoate]
≥ 80%: inhibition at 20 ppm [1, 9] | pest or weed control at 200 ppm [3, 11] | pest or weed control at 200 ppm (Phakopsora pachyrhizi; [12]) | pest or weed control at 200 ppm [7, 15] | pest or weed control at 200 ppm [8] | inhibition at 20 ppm [4, 9] | inhibition at 20 ppm [5, 13] | inhibition at 20 ppm [6, 14]

COc1ccnc(C(=O)N[C@@H](C)C(=O)O[C@@H](C)C2(c3cccc4ccccc34)CC2)c1O [X.05, [(1S)-1-[1-(1-naphthyl)cyclopropyl]ethyl] (2S)-2-[(3-hydroxy-4-methoxy-pyridine-2-carbonyl)amino]propanoate]
≥ 80%: inhibition at 20 ppm [1, 9] | inhibition at 20 ppm [2, 10] | pest or weed control at 200 ppm [3, 11] | pest or weed control at 200 ppm (Phakopsora pachyrhizi; [12]) | pest or weed control at 200 ppm [7, 15] | pest or weed control at 200 ppm [8] | inhibition at 20 ppm [4, 9] | inhibition at 20 ppm [5, 13] | inhibition at 20 ppm [6, 14]

COc1ccnc(C(=O)N[C@@H](C)C(=O)O[C@@H](C)C2(c3cccc4ccccc34)CC2)c1OCOC(=O)C(C)C [X.07, [4-methoxy-2-[[(1S)-1-methyl-2-[(1S)-1-[1-(1-naphthyl)cyclopropyl]ethoxy]-2-oxo-ethyl]carbamoyl]-3-pyridyl]oxymethyl 2-methylpropanoate]
≥ 80%: inhibition at 20 ppm [1, 9] | pest or weed control at 200 ppm [3, 11] | pest or weed control at 200 ppm [7, 15] | pest or weed control at 200 ppm [8] | inhibition at 20 ppm [5, 13] | inhibition at 20 ppm [6, 14]

COc1ccnc(C(=O)N[C@@H](C)C(=O)OC(C)C(C)(C)c2ccc(Br)cc2)c1O (stereo partly drawn) [X.08, [2-(4-bromophenyl)-1,2-dimethyl-propyl] (2S)-2-[(3-hydroxy-4-methoxy-pyridine-2-carbonyl)amino]propanoate]
≥ 80%: inhibition at 20 ppm [1, 9] | inhibition at 20 ppm [2, 10] | pest or weed control at 200 ppm [3, 11] | pest or weed control at 200 ppm [8] | inhibition at 20 ppm [4, 9] | inhibition at 20 ppm [5, 13] | inhibition at 20 ppm [6, 14]

COc1ccnc(C(=O)N[C@@H](C)C(=O)OC(C)C2(c3ccccc3)CCCCC2)c1O (stereo partly drawn) [X.09, 1-(1-phenylcyclohexyl)ethyl (2S)-2-[(3-hydroxy-4-methoxy-pyridine-2-carbonyl)amino]propanoate]
≥ 80%: inhibition at 20 ppm [1, 9] | inhibition at 20 ppm [2, 10] | pest or weed control at 200 ppm [3, 11] | pest or weed control at 200 ppm [8] | inhibition at 20 ppm [4, 9] | inhibition at 20 ppm [5, 13] | inhibition at 20 ppm [6, 14]

COc1ccnc(C(=O)N[C@@H](C)C(=O)OC(C)C(C)n2ccc3ccc(C(F)(F)F)cc32)c1O (stereo partly drawn) [X.12, [1-methyl-2-[6-(trifluoromethyl)indol-1-yl]propyl] (2S)-2-[(3-hydroxy-4-methoxy-pyridine-2-carbonyl)amino]propanoate]
≥ 80%: inhibition at 20 ppm [1, 9] | inhibition at 20 ppm [2, 10] | pest or weed control at 200 ppm [3, 11] | pest or weed control at 200 ppm [8] | inhibition at 20 ppm [4, 9] | inhibition at 20 ppm [5, 13] | inhibition at 20 ppm [6, 14]

COc1ccnc(C(=O)N[C@@H](C)C(=O)O[C@@H](C)C2(c3cccc4ccccc34)CC2)c1OC(C)=O [X.17, [(1S)-1-[1-(1-naphthyl)cyclopropyl]ethyl] (2S)-2-[(3-acetoxy-4-methoxy-pyridine-2-carbonyl)amino]propanoate]
≥ 80%: inhibition at 20 ppm [1, 9] | inhibition at 20 ppm [2, 10] | pest or weed control at 200 ppm [3, 11] | pest or weed control at 200 ppm (Phakopsora pachyrhizi; [12]) | pest or weed control at 200 ppm [7, 15] | pest or weed control at 200 ppm [8] | inhibition at 20 ppm [4, 9] | inhibition at 20 ppm [5, 13] | inhibition at 20 ppm [6, 14]
